Data taken from the supplement of paper PMC10307832.

Tests used:
Test in all cases: relative viability (nuclei count vs DMSO), 5 days (fraction); higher = more cells survive
[1] = compound: CC1=C(C(=O)N2C=CSC2=N1)CCN3CCC(=C(C4=CC=CC=C4)C5=CC=C(C=C5)F)CC3 + CS(=O)(=O)CCNCc1ccc(-c2ccc3ncnc(Nc4ccc(OCc5cccc(F)c5)c(Cl)c4)c3c2)o1 [Lapatinib] (partner 2 µM)
Method in brief: (§1)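 Medians of duplicate plates are given as relative viability. That measure is the nuclei count in treated wells divided by the count in vehicle wells. Counts were taken on 4× images of lung cancer cell lines in 1536-well plates, 5 days after pin-tool dosing the day after seeding with one drug alone or a fixed anchor-drug dose plus five library-drug doses (not always all listed) in √10 steps.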

[2] = compound: CC1=C(C(=O)N2C=CSC2=N1)CCN3CCC(=C(C4=CC=CC=C4)C5=CC=C(C=C5)F)CC3 + C[C@@H](Oc1cc(-c2cnn(C3CCNCC3)c2)cnc1N)c1c(Cl)ccc(F)c1Cl [Crizotinib] (partner 1 µM)
Method in brief: as §1

[3] = compound: CC1=C(C(=O)N2C=CSC2=N1)CCN3CCC(=C(C4=CC=CC=C4)C5=CC=C(C=C5)F)CC3 + Nc1nc2[nH]cc(CCc3ccc(C(=O)N[C@@H](CCC(=O)O)C(=O)O)cc3)c2c(=O)[nH]1 [Pemetrexed] (partner 0.2 µM)
Method in brief: as §1

[4] = compound: CC1=C(C(=O)N2C=CSC2=N1)CCN3CCC(=C(C4=CC=CC=C4)C5=CC=C(C=C5)F)CC3 + Cc1nc(Nc2ncc(C(=O)Nc3c(C)cccc3Cl)s2)cc(N2CCN(CCO)CC2)n1 [Dasatinib] (partner 0.075 µM)
Method in brief: as §1

Row | Cell Line | relative viability ([1]; first compound 0.08 µM) | relative viability ([1]; first compound 0.253 µM) | relative viability ([1]; first compound 0.8 µM) | relative viability ([1]; first compound 2.53 µM) | relative viability ([1]; first compound 8 µM) | relative viability ([2]; first compound 0.08 µM) | relative viability ([2]; first compound 0.253 µM) | relative viability ([2]; first compound 0.8 µM) | relative viability ([2]; first compound 2.53 µM) | relative viability ([2]; first compound 8 µM) | relative viability ([3]; first compound 0.08 µM) | relative viability ([3]; first compound 0.253 µM) | relative viability ([3]; first compound 0.8 µM) | relative viability ([3]; first compound 2.53 µM) | relative viability ([3]; first compound 8 µM) | relative viability ([4]; first compound 0.08 µM) | relative viability ([4]; first compound 0.253 µM) | relative viability ([4]; first compound 0.8 µM) | relative viability ([4]; first compound 2.53 µM) | relative viability ([4]; first compound 8 µM)
1 | NCI-H1299 | 1.04 | 0.88 | 0.97 | 1.03 | 0.767 | 0.971 | 0.943 | 0.976 | 0.965 | 0.69 | – | – | – | – | – | – | – | – | – | –
2 | HCC-44 | 1.07 | 0.83 | 1 | 1.07 | 0.787 | 0.836 | 0.842 | 0.927 | 0.858 | 0.665 | 0.729 | 0.664 | 0.612 | 0.644 | 0.554 | – | – | – | – | –
3 | IA-LM | – | 0.585 | 0.789 | 0.853 | 0.405 | – | 0.713 | 1.09 | 0.944 | 0.502 | – | – | – | – | – | – | – | – | – | –
4 | NCI-H1915 | 1.22 | 1.07 | 0.959 | 1.12 | 0.691 | 0.953 | 1.01 | 0.957 | 0.862 | 0.521 | 0.576 | 0.44 | 0.493 | 0.517 | 0.44 | 0.371 | 0.315 | 0.305 | 0.374 | 0.252
5 | NCI-H596 | 1.05 | 1.17 | 1.06 | 0.989 | 1.06 | 1.01 | 1.13 | 0.957 | 1.03 | 0.949 | 0.49 | 0.511 | 0.488 | 0.584 | 0.466 | 0.636 | 0.653 | 0.612 | 0.627 | 0.421
6 | EPLC-272H | – | 0.921 | 0.809 | 1.09 | 0.873 | – | 1.12 | 0.934 | 1.07 | 0.738 | 0.335 | – | 0.333 | 0.288 | 0.416 | 0.364 | 0.331 | 0.378 | 0.305 | 0.22
7 | NCI-H23 | 0.932 | 0.829 | 1.04 | 1.35 | 0.621 | 0.467 | 0.505 | 0.454 | 0.372 | 0.404 | 0.698 | 0.55 | 0.585 | 0.804 | 0.516 | 0.659 | 0.674 | 0.867 | 0.703 | 0.518
8 | 201T | 1.12 | 1.08 | 0.999 | 1.09 | 1.11 | 1.02 | 1.03 | 1.01 | 1.05 | 1.08 | 0.304 | 0.335 | 0.335 | 0.342 | 0.24 | 0.614 | 0.628 | 0.541 | 0.713 | 0.569
9 | NCI-H2085 | 0.805 | 0.774 | 0.763 | 0.986 | 0.72 | 0.692 | 0.986 | 0.921 | 0.861 | 0.649 | 0.966 | 0.964 | 0.759 | 0.955 | 0.883 | 0.279 | 0.224 | 0.202 | 0.242 | 0.258
10 | NCI-H2228 | 1.04 | 0.974 | 1.14 | 0.99 | 0.635 | 0.6 | 0.486 | 0.376 | 0.539 | 0.322 | 0.406 | 0.37 | 0.375 | 0.362 | 0.278 | 0.542 | 0.555 | 0.562 | 0.546 | 0.338
11 | BEN | 0.507 | 0.626 | 0.798 | 0.757 | 0.53 | 0.725 | 0.818 | 0.963 | 0.963 | 0.69 | 0.928 | 0.753 | 0.715 | 0.942 | 0.753 | 0.318 | 0.319 | 0.294 | 0.362 | 0.284
12 | HCC-366 | – | 0.778 | 1.02 | 1.71 | 0.412 | – | 0.539 | 0.587 | 0.448 | 0.616 | 0.199 | 0.169 | 0.206 | 0.156 | 0.139 | 0.697 | 0.631 | 0.711 | 0.545 | 0.247
13 | SK-MES-1 | 0.453 | 0.537 | 0.478 | 0.437 | 0.481 | 1.11 | 0.969 | 0.975 | 1.1 | 0.916 | 1.11 | 1.05 | 0.97 | 1.02 | 0.829 | 0.383 | 0.273 | 0.27 | 0.334 | 0.369
14 | CAL-12T | – | 0.588 | 0.754 | 0.668 | 0.644 | 0.694 | 0.829 | 0.657 | 0.741 | 0.46 | 1.31 | 1.21 | 1.32 | 1.57 | 0.765 | 0.319 | 0.268 | 0.373 | 0.527 | 0.279
15 | NCI-H1666 | 0.565 | 0.704 | 0.584 | 0.621 | 0.486 | 0.909 | 0.939 | 0.839 | 0.937 | 0.866 | 0.838 | 0.853 | 0.884 | 0.89 | 0.754 | 0.794 | 0.689 | 0.827 | 0.861 | 0.63
16 | NCI-H2087 | 1.13 | 0.88 | 1.07 | 1.23 | 0.843 | 0.818 | 0.813 | 0.94 | 0.944 | 0.525 | 0.634 | 0.686 | 0.595 | 0.682 | 0.599 | 0.91 | 0.87 | 0.882 | 0.752 | 0.637
17 | LK-2 | 0.764 | 0.772 | 1.01 | 0.903 | 0.633 | 0.291 | 0.234 | 0.202 | 0.293 | 0.29 | 0.243 | 0.286 | 0.285 | 0.281 | 0.181 | 0.273 | 0.249 | 0.354 | 0.282 | 0.268
